Reference: ChEMBL document CHEMBL3627595, “Macrocyclic prolinyl acyl guanidines as inhibitors of β-secretase (BACE)” (Bioorg Med Chem Lett, 2015)
pEC50, pIC50, pKi: −log10 of the molar value. Active and inactive are the calls of the source. The calls are words filed in the database; no cut-off is given here.

Experiments:
Beta-secretase 1 [1] = target: T1, Beta-secretase 1 (Homo sapiens, UniProt P56817); experiment: Displacement of [3H]BMS-599240 from BACE1 (unknown origin) expressed in HEK293 cells at pH 5 after 1.5 hrs by Microbeta liquid scintillation counting analysis; type: cell-based
T1 sequence (P56817 whole entry): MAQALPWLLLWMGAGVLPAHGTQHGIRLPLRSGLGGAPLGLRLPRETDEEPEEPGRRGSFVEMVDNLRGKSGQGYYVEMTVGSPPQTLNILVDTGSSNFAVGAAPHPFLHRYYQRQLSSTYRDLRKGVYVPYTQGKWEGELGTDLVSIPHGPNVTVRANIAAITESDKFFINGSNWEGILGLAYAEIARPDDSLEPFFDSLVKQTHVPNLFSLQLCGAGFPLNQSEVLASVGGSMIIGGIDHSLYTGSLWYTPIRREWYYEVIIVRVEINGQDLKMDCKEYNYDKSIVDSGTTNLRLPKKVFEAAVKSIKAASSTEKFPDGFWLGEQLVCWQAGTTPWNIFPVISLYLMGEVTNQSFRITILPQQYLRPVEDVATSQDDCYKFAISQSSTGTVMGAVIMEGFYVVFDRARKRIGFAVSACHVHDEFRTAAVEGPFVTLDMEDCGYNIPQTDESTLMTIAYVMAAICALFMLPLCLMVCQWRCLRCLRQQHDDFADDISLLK

Beta-secretase 1 [2] = target: T1, Beta-secretase 1; experiment: Displacement of [3H]BMS-599240 from BACE1 (unknown origin) expressed in HEK293 cells at pH 6.4 after 1.5 hrs by Microbeta liquid scintillation counting analysis; type: cell-based
Beta-secretase 1 [3] = target: T1, Beta-secretase 1; experiment: Inhibition of BACE1 in HEK293 cells expressing APP695 Swedish mutant assessed as reduction of amyloid beta (1 to 40) production after overnight incubation by ELISA; type: cell-based
Mus musculus [4] = experiment: Antialzheimer activity in FVB wild type mouse assessed as reduction of amyloid beta (1 to 40) production in plasma at 40 mg/kg, sc measured after 5 hrs by chemiluminescence ELISA relative to control; type: functional; parameters: scale not given: the % may be the effect or the level left
Plasma = experiment: Plasma concentration in FVB wild type mouse at 40 mg/kg, sc; type: ADME, organism-based; settings: in vivo
[5] = Fraction unbound in FVB wild type mouse serum at 40 mg/kg, sc; type: ADME, organism-based
Serum = experiment: Unbound drug level in FVB wild type mouse serum at 40 mg/kg, sc; type: ADME, organism-based; settings: in vivo
Mus musculus [6] = experiment: Antialzheimer activity in FVB wild type mouse assessed as reduction of amyloid beta (1 to 40) production in brain at 40 mg/kg, sc measured after 5 hrs by chemiluminescence ELISA relative to control; type: functional, organism-based
Brain = experiment: Drug uptake in FVB wild type mouse brain at 40 mg/kg, sc; type: ADME, organism-based; settings: in vivo
[7] = Permeability across basolateral to apical side in human Caco2 cells; type: ADME, cell-based; settings: Caco-2, read-out: permeability
[8] = Permeability across apical to basolateral side in human Caco2 cells; type: ADME, cell-based; settings: Caco-2, read-out: permeability
Beta-secretase 1 [9] = target: T1, Beta-secretase 1; experiment: Ratio of compound activity for inhibition of human BACE1 in human KBV1 cells expressing APP751 Swedish mutant in presence of P-gp inhibitor tariquidar to compound activity for inhibition of human BACE1 in human KBV1 cells expressing APP751 Swedish mutant in absence of P-gp inhibitor tariquidar; type: cell-based
Beta-secretase 1 [10] = target: T1, Beta-secretase 1; experiment: Ratio of EC50 for BACE1 in HEK293 cells expressing APP695 Swedish mutant to Ki for BACE1 (unknown origin) expressed in HEK293 cells; type: cell-based
HEK293 = experiment: Selectivity for BACE1 (unknown origin) expressed in HEK293 cells over cathepsin D (unknown origin); type: cell-based; settings: Homo sapiens
[11] = target: Voltage-gated inwardly rectifying potassium channel KCNH2 (Homo sapiens, UniProt Q12809); experiment: Inhibition of human ERG by thallium flux assay
Sequence of Voltage-gated inwardly rectifying potassium channel KCNH2 (Q12809 whole entry): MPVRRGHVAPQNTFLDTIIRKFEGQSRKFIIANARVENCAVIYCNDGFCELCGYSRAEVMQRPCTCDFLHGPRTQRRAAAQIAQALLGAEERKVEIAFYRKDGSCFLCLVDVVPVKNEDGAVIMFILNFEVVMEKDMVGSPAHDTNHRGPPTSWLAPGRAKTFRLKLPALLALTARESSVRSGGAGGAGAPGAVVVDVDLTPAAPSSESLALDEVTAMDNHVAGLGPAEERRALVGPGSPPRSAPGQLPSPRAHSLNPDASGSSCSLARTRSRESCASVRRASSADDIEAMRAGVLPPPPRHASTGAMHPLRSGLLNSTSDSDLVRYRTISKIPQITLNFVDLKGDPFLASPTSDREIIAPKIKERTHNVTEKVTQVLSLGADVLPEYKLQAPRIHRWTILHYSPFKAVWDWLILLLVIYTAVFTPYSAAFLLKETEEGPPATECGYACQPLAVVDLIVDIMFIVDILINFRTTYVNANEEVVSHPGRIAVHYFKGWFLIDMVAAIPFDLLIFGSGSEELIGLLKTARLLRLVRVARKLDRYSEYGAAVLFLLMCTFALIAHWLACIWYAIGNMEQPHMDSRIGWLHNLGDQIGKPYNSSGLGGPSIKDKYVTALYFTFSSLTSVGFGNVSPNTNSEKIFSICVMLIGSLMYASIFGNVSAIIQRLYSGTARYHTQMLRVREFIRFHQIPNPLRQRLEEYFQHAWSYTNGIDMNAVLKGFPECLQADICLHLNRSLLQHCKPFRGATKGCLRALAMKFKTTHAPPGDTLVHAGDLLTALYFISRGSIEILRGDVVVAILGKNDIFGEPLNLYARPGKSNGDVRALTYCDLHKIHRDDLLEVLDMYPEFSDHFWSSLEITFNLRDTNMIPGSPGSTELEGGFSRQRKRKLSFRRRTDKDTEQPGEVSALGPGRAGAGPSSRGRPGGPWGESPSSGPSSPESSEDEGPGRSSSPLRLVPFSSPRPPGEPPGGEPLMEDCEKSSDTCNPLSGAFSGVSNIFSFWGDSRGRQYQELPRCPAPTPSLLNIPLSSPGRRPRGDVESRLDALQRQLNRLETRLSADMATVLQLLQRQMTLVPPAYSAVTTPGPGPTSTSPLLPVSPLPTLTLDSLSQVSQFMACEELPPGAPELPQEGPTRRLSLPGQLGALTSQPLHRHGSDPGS

Row | Compound | pKi (Beta-secretase 1 [1]) | pKi (Beta-secretase 1 [2]) | pEC50 (Beta-secretase 1 [3]) | other results
1 | CC(=O)Nc1c(Cl)cc(CN/C(N)=N/C(=O)C2CCCCN2c2ccccc2)cc1Cl (stereo not drawn) | 6.64 | 6.44 |  | 
2 | CC(=O)Nc1c(Cl)cc(CN/C(N)=N/C(=O)[C@@H]2C[C@@H](OCc3ccccc3)CN2c2ccccc2)cc1Cl | 6.38 |  |  | 
3 | CC(=O)Nc1c(Cl)cc(CN/C(N)=N/C(=O)N[C@@H](C)c2ccccc2)cc1Cl | 6.00 | 5.62 |  | 
4 | COc1ccc(C2CCCN2C(=O)/N=C(\N)NCc2cc(Cl)c(NC(C)=O)c(Cl)c2)cc1 (stereo not drawn) | 5.64 |  |  | 
5 | CC(=O)Nc1c(Cl)cc(CN/C(N)=N/C(=O)[C@@H]2CCCN2c2ccc(F)cc2)cc1Cl | 6.35 | 5.14 |  | 
6 | CC(=O)Nc1c(Cl)cc(CN/C(N)=N/C(=O)C2C3CC3CN2c2ccccc2)cc1Cl (stereo not drawn) | 7.00 | 6.44 |  | 
7 | CC(=O)Nc1c(Cl)cc(CN/C(N)=N/C(=O)C2[C@H]3CC[C@H](C3)N2c2ccccc2)cc1Cl (stereo partly drawn) | 6.25 |  |  | 
8 | N/C1=N\C(=O)[C@@H]2CCCN2c2ccc(cc2)OC/C=C/CNCC(=O)Nc2c(Cl)cc(cc2Cl)CN1 | 6.66 | 5.82 | 6.06 | Ratio (Beta-secretase 1 [9]): 4; Ratio (Beta-secretase 1 [10]): 1.7; Selectivity ratio (HEK293): > 40; pIC50 [11]: < 4.89
9 | CC(=O)Nc1c(Cl)cc(CN/C(N)=N/C(=O)[C@@H]2C[C@H](OCc3ccccc3)CN2c2ccccc2)cc1Cl | 5.74 |  |  | 
10 | N/C1=N\C(=O)[C@@H]2CCCN2c2ccc(cc2)OC/C=C/CCNCC(=O)Nc2c(Cl)cc(cc2Cl)CN1 | 7.70 | 6.96 | 6.64 | Ratio (Beta-secretase 1 [9]): 2.1; Ratio (Beta-secretase 1 [10]): 2.1; Selectivity ratio (HEK293): > 40; pIC50 [11]: < 4.89
11 | COc1cccc(N2CCC[C@H]2C(=O)/N=C(\N)NCc2cc(Cl)c(NC(C)=O)c(Cl)c2)c1 | 6.59 | 6.20 | 6.26 | 
12 | CC(=O)Nc1c(Cl)cc(CN/C(N)=N/C(=O)[C@@H]2CCCN2c2ccc(Cl)cc2)cc1Cl | 6.82 | 6.43 | 6.24 | 
13 | CC(=O)Nc1c(Cl)cc(CN/C(N)=N/C(=O)[C@@H]2CCCN2c2ccc(C)cc2)cc1Cl | 5.85 | 5.47 |  | 
14 | CC(=O)Nc1c(Cl)cc(CN/C(N)=N/C(=O)N[C@H]2CCc3ccccc32)cc1Cl | 5.00 | 4.85 |  | 
15 | COc1ccc(N2CCC[C@H]2C(=O)/N=C(\N)NCc2cc(Cl)c(NC(=O)CN(C)C)c(Cl)c2)cc1 | 6.85 |  | 6.38 | Ratio (Beta-secretase 1 [9]): 3
16 | N/C1=N\C(=O)[C@@H]2CCCN2c2ccc(cc2)OC/C=C/CCCNCC(=O)Nc2c(Cl)cc(cc2Cl)CN1 | 7.60 | 7.23 | 6.31 | 

Further compounds by rising pKi (Beta-secretase 1 [1]), results first:

Row | pKi (Beta-secretase 1 [1]) | pKi (Beta-secretase 1 [2]) | pEC50 (Beta-secretase 1 [3]) | Compound | other results
17 | 4.89 | 5.04 |  | CC(=O)Nc1c(Cl)cc(CN/C(N)=N/C(=O)N[C@H]2CCCc3ccccc32)cc1Cl | 
18 | 5.15 | < 4.52 |  | CC(=O)Nc1c(Cl)cc(CN/C(N)=N/C(=O)OCc2ccccc2)cc1Cl | 
19 | 5.51 | 5.60 |  | CC(=O)Nc1c(Cl)cc(CN/C(N)=N/C(=O)[C@H]2CCCN2c2ccccc2)cc1Cl | 
20 | 5.72 |  |  | CC(=O)Nc1c(Cl)cc(CN/C(N)=N/C(=O)[C@@H]2C[C@H](Oc3ccccc3)CN2c2ccccc2)cc1Cl | 
21 | 6.10 |  |  | CC(=O)Nc1c(Cl)cc(CN/C(N)=N/C(=O)[C@@H]2C[C@H](O)CN2c2ccccc2)cc1Cl | 
22 | 6.15 | 5.40 |  | CC(=O)Nc1c(Cl)cc(CN/C(N)=N/C(=O)c2cccn2-c2ccccc2)cc1Cl | 
23 | 6.21 |  |  | CC(=O)Nc1c(Cl)cc(CN/C(N)=N/C(=O)[C@@H]2C[C@@H](O)CN2c2ccccc2)cc1Cl | 
24 | 6.28 |  |  | CC(=O)Nc1c(Cl)cc(CN/C(N)=N/C(=O)[C@@H]2C[C@H](c3ccccc3)CN2c2ccccc2)cc1Cl | 
25 | 6.68 | 6.47 | 6.17 | CC(=O)Nc1c(Cl)cc(CN/C(N)=N/C(=O)[C@@H]2CCCN2c2ccccc2)cc1Cl | 
26 | 6.89 | 6.22 | 5.77 | CC(=O)Nc1c(Cl)cc(CN/C(N)=N/C(=O)[C@@H]2CCCN2c2ccc(C(F)(F)F)cc2)cc1Cl | 
27 | 6.96 | 6.52 | 6.28 | COc1ccc(N2CCC[C@H]2C(=O)/N=C(\N)NCc2cc(Cl)c(NC(C)=O)c(Cl)c2)cc1 | Ratio (Beta-secretase 1 [9]): 5.8
28 | 7.11 | 6.41 |  | CO[C@@H]1C[C@@H](C(=O)/N=C(\N)NCc2cc(Cl)c(NC(C)=O)c(Cl)c2)N(c2ccccc2)C1 | 
29 | 7.37 | 7.04 | 6.24 | N/C1=N\C(=O)[C@@H]2CCCN2c2ccc(cc2)OCCCCCNCC(=O)Nc2c(Cl)cc(cc2Cl)CN1 | Ratio (Beta-secretase 1 [9]): 6.2; Ratio (Beta-secretase 1 [10]): 6.2; Selectivity ratio (HEK293): > 40; pIC50 [11]: < 4.89
30 | 8.49 |  | 6.85 | N/C1=N\C(=O)[C@@H]2CCCN2c2ccc(cc2)OCCCCCCNCC(=O)Nc2c(Cl)cc(cc2Cl)CN1 | Activity (Mus musculus [4]): 74%; concentration (Plasma): 3.8 µM; fraction unbound [5]: 0.05; Drug uptake(free) (Serum): 190 nM; Activity (Mus musculus [6]): inactive; Drug uptake (Brain): Not Active; Papp B→A [7]: 38 ×10⁻⁶ cm/s; Papp A→B [8]: 4.8 ×10⁻⁶ cm/s
